This is an account of results in PMC8213057, “Targeting ALK2: An Open Science Approach to Developing Therapeutics for the Treatment of Diffuse Intrinsic Pontine Glioma” (Journal of Medicinal Chemistry, 2020).

The target of one experiment is CDK9/cyclin T2 (Homo sapiens, UniProt P50750). Briefly: biochemical. The settings on record: read-out: % enzyme activity, 1 μM; Run 1, Run 2.
The next experiment addresses CAMK2b (Homo sapiens, UniProt Q13554). Briefly: biochemical. The note with it: read-out: % enzyme activity, 1 μM; Run 1, Run 2.
Another experiment has as its target DYRK1/DYRK1A (Homo sapiens, UniProt Q13627). The note with it: 1 μM; Run 1, Run 2.
Another experiment deals with PAK4 (Homo sapiens, UniProt O96013). The note with it: 1 μM; Run 1, Run 2.
The next experiment has as its target NEK6 (Homo sapiens, UniProt Q9HC98). Briefly: biochemical. The note with it: read-out: % enzyme activity, 1 μM; Run 1, Run 2.
The next experiment addresses ACK1 (Homo sapiens, UniProt Q07912). The note with it: 1 μM; Run 1, Run 2.
The target of the next experiment is IGF1R (Homo sapiens, UniProt P08069). The experiment can be described thus: biochemical. The note with it: read-out: % enzyme activity, 1 μM; Run 1, Run 2.
For another experiment, the target named is ERK5/MAPK7 (Homo sapiens, UniProt Q13164). The settings on record: 1 μM; Run 1, Run 2.
The next experiment concerns the target CDK2/cyclin A (Homo sapiens, UniProt P24941). The settings on record: 1 μM; Run 1, Run 2.
The target in a further experiment is PKAcg (Homo sapiens, UniProt P22612). The experiment can be described thus: biochemical. The note with it: read-out: % enzyme activity, 1 μM; Run 1, Run 2.
The target of another experiment is T1, KHS/MAP4K5 (Homo sapiens, UniProt Q9Y4K4).
T1 construct: purchased Reaction Biology Corporation
The experiment can be described thus: 375-member kinase panel. The experiment is classed as biochemical. The settings on record: Run 1, Run 2; for % enzyme activity: 1 μM; for remaining activity at 1 µM: read-out: % enzyme activity, 1 μM.

The target in a further experiment is T2, ULK2 (Homo sapiens, UniProt Q8IYT8).
T2 sequence (Q8IYT8 1-1036): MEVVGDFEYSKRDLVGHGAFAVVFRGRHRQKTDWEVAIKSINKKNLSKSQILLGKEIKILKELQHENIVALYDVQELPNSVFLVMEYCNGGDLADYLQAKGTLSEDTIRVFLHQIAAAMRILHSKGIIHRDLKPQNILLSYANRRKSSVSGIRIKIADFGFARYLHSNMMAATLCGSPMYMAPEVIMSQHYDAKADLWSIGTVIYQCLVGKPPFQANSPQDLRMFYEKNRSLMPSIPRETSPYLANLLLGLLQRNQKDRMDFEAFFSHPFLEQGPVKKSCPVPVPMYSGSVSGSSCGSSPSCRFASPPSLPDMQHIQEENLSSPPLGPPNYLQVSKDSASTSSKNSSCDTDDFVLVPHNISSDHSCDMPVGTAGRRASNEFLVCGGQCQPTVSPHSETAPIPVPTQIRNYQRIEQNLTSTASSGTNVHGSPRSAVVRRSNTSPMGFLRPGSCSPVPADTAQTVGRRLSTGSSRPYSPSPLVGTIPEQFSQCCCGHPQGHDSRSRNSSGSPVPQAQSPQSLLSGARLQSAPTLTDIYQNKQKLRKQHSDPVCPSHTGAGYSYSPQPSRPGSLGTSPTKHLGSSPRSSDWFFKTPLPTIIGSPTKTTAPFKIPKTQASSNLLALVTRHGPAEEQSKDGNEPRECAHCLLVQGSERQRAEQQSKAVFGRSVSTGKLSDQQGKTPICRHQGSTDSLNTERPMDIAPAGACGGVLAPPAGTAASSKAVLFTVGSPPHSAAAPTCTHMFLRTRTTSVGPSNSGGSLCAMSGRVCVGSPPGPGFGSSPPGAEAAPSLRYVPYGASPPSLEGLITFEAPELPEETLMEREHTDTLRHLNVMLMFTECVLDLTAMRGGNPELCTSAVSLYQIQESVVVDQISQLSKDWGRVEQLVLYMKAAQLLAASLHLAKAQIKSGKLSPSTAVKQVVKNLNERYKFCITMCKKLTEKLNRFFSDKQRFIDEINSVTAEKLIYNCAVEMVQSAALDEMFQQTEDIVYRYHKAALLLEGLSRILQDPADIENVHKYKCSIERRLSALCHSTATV
Briefly: biochemical. The settings on record: read-out: % enzyme activity, 1 μM; Run 1, Run 2.

In a further experiment the target is T3, EPHA3 (Homo sapiens, UniProt P29320).
T3 sequence (P29320 21-983): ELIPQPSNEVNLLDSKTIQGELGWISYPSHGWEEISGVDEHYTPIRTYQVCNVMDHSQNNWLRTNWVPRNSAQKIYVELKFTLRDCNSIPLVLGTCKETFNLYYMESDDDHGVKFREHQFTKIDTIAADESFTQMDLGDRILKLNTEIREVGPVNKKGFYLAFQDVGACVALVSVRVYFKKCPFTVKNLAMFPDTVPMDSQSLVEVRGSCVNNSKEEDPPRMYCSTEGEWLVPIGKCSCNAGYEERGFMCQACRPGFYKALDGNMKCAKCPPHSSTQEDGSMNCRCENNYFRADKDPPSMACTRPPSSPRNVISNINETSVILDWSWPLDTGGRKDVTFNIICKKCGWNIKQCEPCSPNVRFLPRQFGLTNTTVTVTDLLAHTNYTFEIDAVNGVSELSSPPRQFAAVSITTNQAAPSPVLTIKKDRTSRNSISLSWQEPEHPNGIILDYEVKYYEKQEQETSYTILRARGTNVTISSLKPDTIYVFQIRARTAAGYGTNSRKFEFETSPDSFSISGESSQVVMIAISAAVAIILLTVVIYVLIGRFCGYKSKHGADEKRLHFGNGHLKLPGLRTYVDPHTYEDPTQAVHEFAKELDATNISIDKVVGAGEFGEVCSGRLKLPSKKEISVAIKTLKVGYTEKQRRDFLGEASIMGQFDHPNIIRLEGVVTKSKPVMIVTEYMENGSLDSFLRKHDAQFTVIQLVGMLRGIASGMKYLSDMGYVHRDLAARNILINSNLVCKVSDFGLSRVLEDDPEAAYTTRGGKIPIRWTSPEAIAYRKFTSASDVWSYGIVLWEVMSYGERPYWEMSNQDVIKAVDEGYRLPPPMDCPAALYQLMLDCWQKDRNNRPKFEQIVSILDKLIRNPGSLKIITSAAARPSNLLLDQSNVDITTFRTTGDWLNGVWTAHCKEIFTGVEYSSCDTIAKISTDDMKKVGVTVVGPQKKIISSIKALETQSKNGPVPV
The experiment can be described thus: biochemical. The settings on record: read-out: % enzyme activity, 1 μM; Run 1, Run 2.

The target of the next experiment is MELK (Homo sapiens, UniProt Q14680). Briefly: biochemical. The note with it: read-out: % enzyme activity, 1 μM; Run 1, Run 2.

Each structure is given as a SMILES string. Several values for one entry are separate records, joined by “and”; a condition that tells them apart may be missing. Identical values can stand only once.

T1 sequence (Q9Y4K4 whole entry): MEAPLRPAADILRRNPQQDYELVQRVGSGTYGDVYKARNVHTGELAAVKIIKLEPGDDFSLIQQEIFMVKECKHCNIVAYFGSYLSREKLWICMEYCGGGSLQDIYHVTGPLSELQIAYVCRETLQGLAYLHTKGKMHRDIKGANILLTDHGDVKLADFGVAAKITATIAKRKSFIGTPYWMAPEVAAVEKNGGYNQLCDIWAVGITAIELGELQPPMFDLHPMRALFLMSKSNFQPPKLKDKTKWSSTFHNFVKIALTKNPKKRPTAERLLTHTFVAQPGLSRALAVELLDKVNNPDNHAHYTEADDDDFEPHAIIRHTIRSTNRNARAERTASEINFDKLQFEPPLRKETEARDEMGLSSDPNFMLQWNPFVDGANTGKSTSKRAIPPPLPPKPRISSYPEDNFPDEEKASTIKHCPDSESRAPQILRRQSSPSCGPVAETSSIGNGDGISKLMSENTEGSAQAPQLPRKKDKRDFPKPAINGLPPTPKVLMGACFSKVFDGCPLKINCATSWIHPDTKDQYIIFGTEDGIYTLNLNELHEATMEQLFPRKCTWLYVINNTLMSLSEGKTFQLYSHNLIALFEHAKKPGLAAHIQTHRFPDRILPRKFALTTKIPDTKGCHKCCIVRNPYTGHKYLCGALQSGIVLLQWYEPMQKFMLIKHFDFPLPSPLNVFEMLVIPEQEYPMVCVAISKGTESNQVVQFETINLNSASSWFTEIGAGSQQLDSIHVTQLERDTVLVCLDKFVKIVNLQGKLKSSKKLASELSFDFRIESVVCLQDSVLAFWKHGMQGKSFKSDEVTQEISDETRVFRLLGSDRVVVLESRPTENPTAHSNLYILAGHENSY
CDK9/cyclin T2, sequence (P50750 whole entry): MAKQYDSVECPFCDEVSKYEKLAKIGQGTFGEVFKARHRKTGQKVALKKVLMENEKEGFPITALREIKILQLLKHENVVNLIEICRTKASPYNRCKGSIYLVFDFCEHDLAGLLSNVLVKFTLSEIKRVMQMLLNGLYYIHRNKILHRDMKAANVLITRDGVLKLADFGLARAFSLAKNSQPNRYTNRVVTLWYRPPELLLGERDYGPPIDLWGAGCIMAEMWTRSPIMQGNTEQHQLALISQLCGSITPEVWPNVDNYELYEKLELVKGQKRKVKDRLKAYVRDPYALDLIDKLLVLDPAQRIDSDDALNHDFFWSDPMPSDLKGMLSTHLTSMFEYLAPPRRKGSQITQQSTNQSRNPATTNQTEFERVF
CDK9/cyclin T2, sequence (O60583 whole entry partner): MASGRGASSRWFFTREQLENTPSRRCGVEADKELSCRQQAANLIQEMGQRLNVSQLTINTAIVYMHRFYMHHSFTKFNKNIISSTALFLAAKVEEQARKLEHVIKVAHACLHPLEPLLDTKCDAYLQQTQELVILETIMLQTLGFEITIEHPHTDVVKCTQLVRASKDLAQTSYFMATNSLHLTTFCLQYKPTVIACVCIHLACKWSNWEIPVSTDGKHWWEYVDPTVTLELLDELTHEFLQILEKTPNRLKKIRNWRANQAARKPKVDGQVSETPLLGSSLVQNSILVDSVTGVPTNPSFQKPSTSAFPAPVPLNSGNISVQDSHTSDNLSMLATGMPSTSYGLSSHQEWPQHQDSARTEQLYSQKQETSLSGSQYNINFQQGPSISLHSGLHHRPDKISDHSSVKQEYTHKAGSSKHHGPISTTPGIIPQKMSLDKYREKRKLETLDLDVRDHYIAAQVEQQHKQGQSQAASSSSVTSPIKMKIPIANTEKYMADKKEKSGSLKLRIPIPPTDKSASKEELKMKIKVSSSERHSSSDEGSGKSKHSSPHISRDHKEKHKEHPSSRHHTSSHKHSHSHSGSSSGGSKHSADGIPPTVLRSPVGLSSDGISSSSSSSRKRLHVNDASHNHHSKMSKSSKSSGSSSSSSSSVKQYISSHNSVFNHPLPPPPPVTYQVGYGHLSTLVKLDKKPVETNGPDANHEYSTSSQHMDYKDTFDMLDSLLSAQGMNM
ERK5/MAPK7, sequence (Q13164 whole entry): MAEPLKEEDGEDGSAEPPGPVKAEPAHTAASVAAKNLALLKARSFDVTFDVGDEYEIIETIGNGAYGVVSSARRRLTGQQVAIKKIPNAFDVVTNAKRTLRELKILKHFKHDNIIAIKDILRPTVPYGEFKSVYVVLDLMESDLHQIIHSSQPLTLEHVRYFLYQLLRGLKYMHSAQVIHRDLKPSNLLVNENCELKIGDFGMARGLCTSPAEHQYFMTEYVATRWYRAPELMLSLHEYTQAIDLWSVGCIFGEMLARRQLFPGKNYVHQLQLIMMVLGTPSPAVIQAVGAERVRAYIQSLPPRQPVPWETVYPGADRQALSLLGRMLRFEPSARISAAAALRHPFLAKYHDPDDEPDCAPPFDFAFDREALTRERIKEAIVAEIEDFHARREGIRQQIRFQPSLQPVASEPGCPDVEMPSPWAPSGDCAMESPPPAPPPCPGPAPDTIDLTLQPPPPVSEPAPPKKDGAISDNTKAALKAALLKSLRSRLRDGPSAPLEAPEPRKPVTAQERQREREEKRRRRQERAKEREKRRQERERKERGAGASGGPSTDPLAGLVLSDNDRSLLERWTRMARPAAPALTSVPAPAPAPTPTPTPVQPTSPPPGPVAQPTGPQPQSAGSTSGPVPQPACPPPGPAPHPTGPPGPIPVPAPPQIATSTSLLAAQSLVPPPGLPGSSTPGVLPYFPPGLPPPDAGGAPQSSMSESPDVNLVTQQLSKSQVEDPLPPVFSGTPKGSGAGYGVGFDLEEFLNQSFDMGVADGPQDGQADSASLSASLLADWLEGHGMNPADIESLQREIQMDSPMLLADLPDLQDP
NEK6, sequence (Q9HC98 whole entry): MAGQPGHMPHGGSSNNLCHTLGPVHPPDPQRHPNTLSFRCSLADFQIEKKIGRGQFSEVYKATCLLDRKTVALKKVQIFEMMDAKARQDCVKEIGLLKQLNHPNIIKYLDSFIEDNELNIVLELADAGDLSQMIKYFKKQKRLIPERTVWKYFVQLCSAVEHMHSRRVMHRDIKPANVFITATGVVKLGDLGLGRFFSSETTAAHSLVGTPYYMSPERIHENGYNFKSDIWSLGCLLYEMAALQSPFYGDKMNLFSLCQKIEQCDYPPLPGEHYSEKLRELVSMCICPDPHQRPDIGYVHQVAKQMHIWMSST
PKAcg, sequence (P22612 whole entry): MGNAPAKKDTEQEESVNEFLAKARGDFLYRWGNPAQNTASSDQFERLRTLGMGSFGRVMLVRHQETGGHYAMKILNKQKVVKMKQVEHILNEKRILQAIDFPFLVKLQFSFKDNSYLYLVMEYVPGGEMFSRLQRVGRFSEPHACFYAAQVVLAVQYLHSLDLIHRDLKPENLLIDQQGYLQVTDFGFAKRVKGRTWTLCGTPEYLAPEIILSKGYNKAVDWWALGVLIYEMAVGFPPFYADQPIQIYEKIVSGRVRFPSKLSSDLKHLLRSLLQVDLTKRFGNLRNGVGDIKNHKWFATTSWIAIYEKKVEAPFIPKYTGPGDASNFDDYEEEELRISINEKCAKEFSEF
MELK, sequence (Q14680 whole entry): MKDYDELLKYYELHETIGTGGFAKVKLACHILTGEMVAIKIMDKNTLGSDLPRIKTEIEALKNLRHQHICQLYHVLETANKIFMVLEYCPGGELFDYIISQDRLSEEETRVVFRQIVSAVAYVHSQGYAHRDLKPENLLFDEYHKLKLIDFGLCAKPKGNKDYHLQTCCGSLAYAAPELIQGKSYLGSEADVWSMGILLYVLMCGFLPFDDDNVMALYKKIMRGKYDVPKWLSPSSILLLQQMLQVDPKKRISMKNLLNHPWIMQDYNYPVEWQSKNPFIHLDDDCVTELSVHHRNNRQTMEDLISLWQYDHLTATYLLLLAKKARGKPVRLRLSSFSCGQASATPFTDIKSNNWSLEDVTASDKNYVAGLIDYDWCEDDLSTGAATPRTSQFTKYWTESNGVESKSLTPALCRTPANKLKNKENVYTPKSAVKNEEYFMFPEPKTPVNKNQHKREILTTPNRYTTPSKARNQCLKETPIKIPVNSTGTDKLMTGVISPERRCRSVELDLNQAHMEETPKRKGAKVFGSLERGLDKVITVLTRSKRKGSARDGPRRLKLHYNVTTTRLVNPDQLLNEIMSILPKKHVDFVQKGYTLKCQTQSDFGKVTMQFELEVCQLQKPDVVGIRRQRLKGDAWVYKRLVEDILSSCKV
CAMK2b, sequence (Q13554 whole entry): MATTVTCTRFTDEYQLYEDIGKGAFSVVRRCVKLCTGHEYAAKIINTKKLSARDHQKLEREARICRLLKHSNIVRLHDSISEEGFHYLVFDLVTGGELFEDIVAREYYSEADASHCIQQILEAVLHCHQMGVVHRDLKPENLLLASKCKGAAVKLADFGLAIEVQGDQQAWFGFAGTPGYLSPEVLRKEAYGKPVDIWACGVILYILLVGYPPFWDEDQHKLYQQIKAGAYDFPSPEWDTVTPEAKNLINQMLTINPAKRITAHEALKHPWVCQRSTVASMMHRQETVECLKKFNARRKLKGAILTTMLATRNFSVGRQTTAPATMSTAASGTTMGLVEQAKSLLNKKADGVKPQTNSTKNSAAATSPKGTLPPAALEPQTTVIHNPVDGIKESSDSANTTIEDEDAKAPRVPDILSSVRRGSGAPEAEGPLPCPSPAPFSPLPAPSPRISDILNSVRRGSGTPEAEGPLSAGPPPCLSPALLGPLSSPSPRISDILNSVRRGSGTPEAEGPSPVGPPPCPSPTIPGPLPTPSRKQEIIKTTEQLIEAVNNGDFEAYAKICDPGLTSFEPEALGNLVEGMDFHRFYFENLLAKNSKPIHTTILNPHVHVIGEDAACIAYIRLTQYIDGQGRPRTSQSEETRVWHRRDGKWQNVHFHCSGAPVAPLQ

For the compound `COc1cc(-c2cncc(-c3ccc(N4CCN(C)CC4)cc3)c2C)cc(F)c1C(N)=O` [Compound 26a, 2-Fluoro-6-methoxy-4-(4-methyl-5-(4-(4-methylpiperazin-1-yl)phenyl)pyridin-3-yl)benzamide], the remaining activity at 1 µM on CDK9/cyclin T2 is 100%; at CAMK2b, 83.9%; on NEK6, 99.3%; at IGF1R, 99.2%; on PKAcg it was 94.1%; at KHS/MAP4K5, 39.7%. The remaining activity at 1 µM on ULK2 turned out to be 73.7%; on EPHA3 it was 95.7%; on MELK it was 99.2%. For the same compound, the “% enzyme activity” value on DYRK1/DYRK1A is listed as 43.07%; at PAK4, 98.21%; on ACK1, 65.46%; at ERK5/MAPK7, 92.77%; at CDK2/cyclin A, 97.95%; on KHS/MAP4K5, 39.28%. This compound showed a % enzyme activity at 1 μM in the experiment with MNK2 of 48.2%.
Turning to `COc1cc(-c2cncc(-c3ccc(N4C[C@@H](C)N(C)[C@@H](C)C4)cc3)c2C)cc(F)c1C(N)=O` [Compound 26c, 2-Fluoro-6-methoxy-4-(4-methyl-5-(4-((3R,5S)-3,4,5-trimethylpiperazin-1-yl)phenyl)pyridin-3-yl)benzamide], the remaining activity at 1 µM at CDK9/cyclin T2 is 102%; on CAMK2b, 92.8%; at NEK6 it was 104%; on IGF1R, 96.1%; at PKAcg, 101%; on KHS/MAP4K5, 41.7%. Also, the remaining activity at 1 µM amounted to 85.2% on ULK2, 101% on EPHA3 and 99.4% at MELK. The “% enzyme activity” value was 60.05% at DYRK1/DYRK1A; 98.82% on PAK4; 76.07% on ACK1; 98.01% on ERK5/MAPK7; 98.65% on CDK2/cyclin A; 40.60% at KHS/MAP4K5. Also, the % enzyme activity at 1 μM with MNK2 is 70.8% and 68.3%.
